Read-outs that look alike come from different tables or passages of the source.
Assays:
[1] = Double blind, placebo-controlled crossover study of D-cycloserine in schizophrenia (PANSS); format: in vivo, human; details: D-cycloserine 50 mg/day, 6 weeks
[2] = biological target: T1, GLYT1-mediated synaptosomal glycine transport (Rattus norvegicus, UniProt P28572); assay: Inhibition of [3H]glycine uptake in P2 synaptosomal fractions; format: biochemical, Sprague-Dawley rats; details: 100 μg/ml
T1 construct: Synaptosomal P2 fractions were prepared from cerebral cortex+hippocampus of Sprague-Dawley rats; from tissue; host or cells: rat cerebral cortex + hippocampus, P2 synaptosomal fraction
T1 sequence (P28572 1-638): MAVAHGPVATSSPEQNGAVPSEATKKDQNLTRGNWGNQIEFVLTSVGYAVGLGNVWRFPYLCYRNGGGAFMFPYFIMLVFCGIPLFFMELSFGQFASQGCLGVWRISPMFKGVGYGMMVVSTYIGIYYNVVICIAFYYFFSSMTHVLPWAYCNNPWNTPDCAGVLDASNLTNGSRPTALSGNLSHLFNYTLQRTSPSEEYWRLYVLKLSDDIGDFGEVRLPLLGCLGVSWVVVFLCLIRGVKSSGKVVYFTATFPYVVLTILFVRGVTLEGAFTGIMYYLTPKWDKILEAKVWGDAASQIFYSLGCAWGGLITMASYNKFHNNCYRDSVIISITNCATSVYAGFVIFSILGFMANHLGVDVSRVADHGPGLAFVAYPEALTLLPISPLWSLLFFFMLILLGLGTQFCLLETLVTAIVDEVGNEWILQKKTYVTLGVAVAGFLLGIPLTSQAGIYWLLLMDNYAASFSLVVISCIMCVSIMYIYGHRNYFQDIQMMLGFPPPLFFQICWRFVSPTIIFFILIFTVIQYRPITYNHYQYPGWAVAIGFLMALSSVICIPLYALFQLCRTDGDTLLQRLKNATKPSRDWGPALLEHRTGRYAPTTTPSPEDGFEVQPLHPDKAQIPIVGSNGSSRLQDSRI
Protocol: Synaptosomal P2 fractions were prepared from cerebral cortex+hippocampus of Sprague-Dawley rats (200-250 g). Brain tissue was homogenized in 0.32 M sucrose in Tris-HCl buffer (pH 7.4), and centrifuged at 1,000×g for 10 min at 4° C. in a Sorvall 5C centrifuge. The supernatant was then centrifuged at 14,000×g for 10 min and the pellet resuspended in artificial CSF having the following composition (mM): NaCl, 125; KCl, 3; MgSO4, 1.2; CaCl2, 1.2; NaH2PO4, 1; NaHCO3, 22; glucose, 10. Homogenate was aerated with 95% O2/5% CO2 until use. 1 ml aliquots of homogenate were preincubated with specific concentrations of glycineamide derivatives, following which incubation was initiated by the addition of 10 μl of 10 μM [^3H]glycine (DuPont/NEN or Sigma, spec. act.≈45 Ci/mmol) to obtain a final concentration of 100 nM. Nonspecific binding was determined in the presence of 10 mM sarcosine. Following 5 min, incubation was terminated by filtration under reduced pressure using a Brandel 24-well cell harvester and Whatman GF-B filters. Radioactivity was determined by scintillation counter with approximate efficiency of 50%.

[3] = tested on: PCP-induced hyperactivity; assay: Inhibition of PCP-induced locomotor hyperactivity; format: in vivo, BALB/c mice; details: for inhibition of PCP-induced hyperactivity: 100 mg/kg i.p. pretreatment, summed activity over 90 min
Protocol: (§1) Behavioral studies were performed using BALB/c mice (25 g) of either sex. Rodent activity was monitored using a photocell-based activity meter (Columbus Instruments Auto-Track System, Columbus, Ohio). Animals were placed in test cages and allowed to accommodate overnight. […] 30 min. after pretreatment, animals were injected with either PCP (5 mg/kg i.p.) or amphetamine (5 mg/kg s.c.). Activity was then monitored for an additional 90 minutes. For statistical analyses, summed activity over the 90 min. following PCP/amphetamine injection was used as a measure of drug-induced hyperactivity.

[4] = tested on: PCP-induced hyperactivity; details: cited from earlier work
[5] = tested on: amphetamine-induced hyperactivity; assay: Effect on amphetamine-induced locomotor hyperactivity; format: in vivo, BALB/c mice; details: GDA 50 mg/kg i.p.; amphetamine 5 mg/kg
Protocol: as §1

Question: For `N[C@@H]1CONC1=O` [D-cycloserine], which “change in general psychopathology scores (PANSS)” value [1] is on record?
Answer: Its value is “did not change significantly”.

Question: And the “change in positive symptoms (PANSS)” value [1]?
Answer: Its value is “did not change significantly”.

Question: And the “mean decrease in negative symptoms” value [1]?
Answer: Its value is 9.2%.

Question: And the “reduction in negative symptoms (PANSS)” value ([1]; mean±SD)?
Answer: The value was 3.6±3.7 point.

Question: Which “effect on GLYT1-mediated transport at single fixed concentration” value (shortened to “effect on GLYT1-mediated transport”) [2] does the source give for `CCCCCCCCNC(=O)CN` [G8A, glycyloctylamide] here?
Answer: Its value is “no significant effect”.

Question: For `CCCCCCCCCCNC(=O)CN` [G10A, glycyldecylamide], which “inhibition of PCP-induced hyperactivity” value ([3]; PCP 5 mg/kg i.p.) is on record?
Answer: Its value is “Significant reductions”.

Question: And the “effect on GLYT1-mediated transport” value [2]?
Answer: The value was “significant inhibition”.

Question: Which “effect on GLYT1-mediated transport” value [2] does the source give for `CCCCCCCCCCCNC(=O)CN` [G11A, glycylundecylamide] here?
Answer: Its value is “significant inhibition”.

Question: With `CCCCCCCCCCCCCNC(=O)CN` [G13A, glycyltriscadecylamide] as the molecule, how does the “inhibition of PCP-induced hyperactivity” value ([3]; PCP 5 mg/kg i.p.) read?
Answer: Its value is “Significant reductions”.

Question: And the “effect on GLYT1-mediated transport” value [2]?
Answer: The value was “significant inhibition”.

Question: Which “PCP-induced hyperactivity, % of control (PCP alone) levels” value ([3]; 50 mg/kg, PCP 5 mg/kg i.p.) does the source give for `CCCCCCCCCCCCNC(=O)CN` [GDA, glycyldodecylamide] here?
Answer: Its value is “below 70 % of control”.

Question: What about the “inhibition of PCP-induced hyperactivity” value ([3]; PCP 5 mg/kg i.p.) of the same molecule?
Answer: The value was “Significant reductions”.

Question: What about the “PCP-induced hyperactivity, % of control (PCP alone) levels” value ([3]; 100 mg/kg, PCP 5 mg/kg i.p.) of the same molecule?
Answer: Its value is “below 50 % of control”.

Question: What about the “effect on hyperactivity induced by PCP” value ([3]; GDA 50 mg/kg i.p., PCP 5 mg/kg i.p.) of the same molecule?
Answer: The value was “significantly reduced”.

Question: What about the “effect on basal activity” value ([3]; GDA pretreatment 50 mg/kg i.p.) of the same molecule?
Answer: The value was “did not significantly affect”.

Question: And the “effect on GLYT1-mediated transport” value [2]?
Answer: The value was “significant inhibition”.

Question: What about the “potency in reversing PCP-induced hyperactivity relative to glycine (Toth et al., 1986)” value ([4]; early preclinical studies) of the same molecule?
Answer: The value was “significantly more potent than glycine”.

Question: And the “doses inhibiting PCP-induced hyperactivity (prior studies)” value ([4]; i.p., prior studies)?
Answer: Its value is 50 to 200 mg/kg.

Question: What about the “effect on hyperactivity induced by amphetamine” value [5] of the same molecule?
Answer: The value was “not significantly altered”.

Question: With `NCC(=O)O` [glycine] as the molecule, how does the “change in positive symptoms (PANSS)” value (beginning to end of glycine treatment) read?
Answer: Its value is “did not change significantly”.

Question: And the “positive symptoms score at end of treatment” value (end of glycine treatment (beginning 25.7±7.0), mean±SD)?
Answer: The value was 22.0±4.0 points.

Question: And the “general psychopathology score at end of treatment” value (end of glycine treatment (from 56.0±19.4), mean±SD)?
Answer: The value was 43.0±13.8 points.

Question: And the “decrease in general psychopathology symptoms” value (glycine 0.8 g/kg/day, 6 weeks)?
Answer: The value was 23.2%.

Question: What about the “mean reduction in negative symptoms” value (glycine 0.8 g/kg/day, 6 weeks) of the same molecule?
Answer: Its value is 28.5%.

Question: What about the “reduction in negative symptoms (PANSS)” value (glycine 0.8 g/kg/day, 6 weeks, 7 neuroleptic-resistant schizophrenia subjects, mean±SD) of the same molecule?
Answer: The value was 11.3±3.6 point.

Question: What about the “change in general psychopathology (PANSS)” value (glycine 0.8 g/kg/day, 6 weeks, mean±SD) of the same molecule?
Answer: The value was 13.0±7.7 point.

Question: And the “degree of reduction in negative symptoms relative to D-cycloserine treatment” value (same subjects, change scores compared across the two trials)?
Answer: The value was 3 fold.

Question: For glycylhexylamide [G6A], which “inhibition of PCP-induced hyperactivity” value ([3]; PCP 5 mg/kg i.p.) is on record?
Answer: The value was “did not significantly inhibit”.

Question: What about the “effect on GLYT1-mediated transport” value [2] of the same molecule?
Answer: The value was “significant potentiation”.

Question: What about the “inhibition of PCP-induced hyperactivity (early study, Toth et al., 1986)” value ([4]; literature) of the same molecule?
Answer: Its value is “not to significantly inhibit”.
